# Laboratory results taken from US8207330B2, “Two-photon absorption material and application thereof” (Ricoh Company, Ltd., priority 2008, dated 2012).
# Test: Two-photon absorption cross-sectional area, Z scan method, Examples B
# Assay type: physicochemical
# Conditions: tetrahydrofuran solution, femtosecond laser, 780 nm to 960 nm (710 nm to 990 nm)
# Experimental: Each of Compounds (1), (2), (57), (58), (59), (60), (3), (4), (61), (62), (25), (26), (63), (64), (65), (66), (45), (67), (68), (69), (70), (71), (72), (5), (9), (13), (19), (27), (31), (32), (34), (36), (39), (44), (53) and (55) was dissolved in tetrahydrofuran, and the resultant tetrahydrofuran solution was measured for its two-photon absorption cross-sectional area according to the below-described evaluation method therefor.
# This measurement was performed under the following conditions:
# Sample concentration: 10^−2 mol to 10^−5 mol (this range covering optimal concentrations of the samples (at which measurements are easily performed));
# Light path length of cell: 10 mm (corresponding to the inner diameter of cuvette);
# Light: variable femtosecond laser having a wavelength of 710 nm to 990 nm; and
# Light power: 10 mW to 800 mW.
# The following compound (73) was dissolved in tetrahydrofuran, and the resultant solution was measured for its two-photon absorption cross-sectional area according to the below-described evaluation method therefor.
# The following compound (74) was dissolved in tetrahydrofuran, and the resultant solution was measured for its two-photon absorption cross-sectional area according to the below-described evaluation method therefor.
# [drawing 68] [Method for Measuring Two-Photon Absorption Cross-Sectional Area]
# FIG. 8 schematically illustrates a system of the method.
# Measuring light source: femtosecond titanium sapphire laser
# Repetition frequency: 80 MHz
# Measuring method: Z scan method
# Inner diameter of cuvette: 10 mm
# Light power for measurement: about 500 mW
# Collection diameter: 40 μm to 50 μm
# A quartz cell filled with each sample solution was placed in a light path through which a focused laser beam was passed. Then, the cell was moved along the light path for Z-scan measurement.
# The sample solution was measured for its transmittance, and the thus-obtained value and the following theoretical equation (I) were used to determine a nonlinear absorption coefficient of the sample. T=[ln(1+I0L0β)]/I0L0β (I)
# where T denotes a transmittance (%), I0 denotes an excited light density [GW/cm^2], L0 denotes a sample cell length [cm], and β denotes a nonlinear absorption coefficient [cm/GW].
# The thus-determined nonlinear absorption coefficient and the following equation (ii) were used to calculate a two-photon absorption cross-sectional area σ. Note that the unit of σ is GM (1 GM=1×10^−50 cm^4·s·photon^−1). σ=1,000×hvβ/[…] (ii)
# where h denotes the Planck's constant [J·s], v denotes a frequency of an incident laser beam [s^−1], NA denotes the Avogadoro's number, and C denotes a concentration of a solution [mol/L].
row,SMILES,Two-photon absorption cross-sectional area
1,CCCCCCc1ccc(N(c2ccc(-c3c4nc(c(-c5c(C)cc(C)cc5C)c5[nH]c(cc6nc(c(-c7c(C)cc(C)cc7C)c7[nH]c3c(CC)c7C)C(C)=C6CC)c(CC)c5C)C(C)=C4CC)cc2)c2ccc(-c3c4nc(c(-c5c(C)cc(C)cc5C)c5[nH]c(cc6nc(c(-c7c(C)cc(C)cc7C)c7[nH]c3c(CC)c7C)C(C)=C6CC)c(CC)c5C)C(C)=C4CC)cc2)cc1 [(25)],860 GM
2,CCCCCCc1ccc(N(c2ccc(C3=C4N=C(C(C)=C4CC)C(c4c(C)cc(C)cc4C)=c4c(C)c(CC)c5[n]4[Co][n]4c(c(C)c(CC)c43)C(c3c(C)cc(C)cc3C)=C3N=C(C=5)C(CC)=C3C)cc2)c2ccc(C3=c4c(CC)c(C)c5[n]4[Co][n]4c(c(CC)c(C)c4C(c4c(C)cc(C)cc4C)=C4N=C3C(CC)=C4C)C=C3N=C(C(C)=C3CC)C=5c3c(C)cc(C)cc3C)cc2)cc1 [(65)],810 GM
3,CCC1=C(C)c2nc1c(Br)c1[nH]c(c(C)c1CC)c(Br)c1nc(c(-c3ccc(N(c4ccccc4)c4ccc(-c5c6nc(c(-c7ccccc7C(F)(F)F)c7[nH]c(c(Br)c8nc(c(Br)c9[nH]c5c(CC)c9C)C(C)=C8CC)c(CC)c7C)C(C)=C6CC)cc4)cc3)c3[nH]c(c(C)c3CC)c2-c2ccccc2C(F)(F)F)C(CC)=C1C [(53)],840 GM
4,CCCCC(CC)COc1ccc(N(c2ccc(C3=C4N=C(C(C)=C4CC)C(c4ccccc4C(=O)OC)=c4c(C)c(CC)c5[n]4[Zn][n]4c(c(C)c(CC)c43)C(c3ccccc3C(=O)OC)=C3N=C(C=5)C(CC)=C3C)cc2)c2ccc(C3=c4c(CC)c(C)c5[n]4[Zn][n]4c(c(CC)c(C)c4C(c4ccccc4C(=O)OC)=C4N=C3C(CC)=C4C)C=C3N=C(C(C)=C3CC)C=5c3ccccc3C(=O)OC)cc2)cc1 (centres unmarked) [(34)],"1,010 GM"
5,CCCCCCc1ccc(N(c2ccc(C3=C4N=C(C(C)=C4CC)C(c4c(C)cc(C)cc4C)=c4c(C)c(CC)c5[n]4[Ni][n]4c(c(C)c(CC)c43)C(c3c(C)cc(C)cc3C)=C3N=C(C=5)C(CC)=C3C)cc2)c2ccc(C3=c4c(CC)c(C)c5[n]4[Ni][n]4c(c(CC)c(C)c4C(c4c(C)cc(C)cc4C)=C4N=C3C(CC)=C4C)C=C3N=C(C(C)=C3CC)C=5c3c(C)cc(C)cc3C)cc2)cc1 [(63)],900 GM
6,CC1=C(C)c2nc1c(-c1ccc(C#N)cc1)c1[nH]c(c(C)c1C)c(-c1ccc(/C=C/c3ccc(N(c4ccccc4)c4ccc(C)cc4)cc3)cc1)c1nc(c(-c3ccc(C#N)cc3)c3[nH]c(c(C)c3C)c2-c2ccc(/C=C/c3ccc(N(c4ccccc4)c4ccc(C)cc4)cc3)cc2)C(C)=C1C [(5)],980 GM
7,CCC1=C(C)C2=NC1=Cc1c(CC)c(C)c3[n]1[Ni][n]1c(c(C)c(CC)c1=C(c1ccc(N(c4ccccc4)c4ccc(C5=C6N=C(C(C)=C6CC)C(c6ccncc6)=c6c(C)c(CC)c7[n]6[Ni][n]6c(c(C)c(CC)c65)C(c5ccncc5)=C5N=C(C(CC)=C5C)C=7/C=C/c5ccc(N(c6ccccc6)c6ccccc6)cc5)cc4)cc1)C1=NC(=C3c3ccncc3)C(C)=C1CC)=C2c1ccncc1 [(32)],900 GM
8,"CC(C)(C)c1c2nc(c(C(C)(C)C)c3ccc([nH]3)c(C(C)(C)C)c3nc(c(C(C)(C)C)c4ccc1[nH]4)C=C3)C=C2 [(73), reference compound]",≈0 GM
9,CC1=C(C)C2=C(I)c3c(C)c(C)c4[n]3[Zn][n]3c(cc(C)c3=C(c3ccccc3C(F)(F)F)C1=N2)=C(c1ccc2c(c1)C(C)(C)c1cc(C3=C5N=C(C(C)=C5C)C(c5ccccc5C(F)(F)F)=c5c(C)c(C)c6[n]5[Zn][n]5c3c(C)c(C)c5C(c3ccccc3C(F)(F)F)=C3N=C(C(C)=C3C)C=6I)ccc1-2)C1=NC(=C4c2ccccc2C(F)(F)F)C(C)=C1C [(44)],"1,000 GM"

# Now from value to compound:
row,Two-photon absorption cross-sectional area,SMILES
1,920 GM,CCCCCCC1(CCCCCC)c2cc(C3=C4C=CC(=N4)C(c4cc(OC)c(OC)c(OC)c4)=c4ccc5[n]4[Cu][n]4c(ccc43)C(c3cc(OC)c(OC)c(OC)c3)=C3C=CC(=N3)C=5/C=C/c3ccc(N(c4ccccc4)c4ccccc4)cc3)ccc2-c2ccc(C3=c4ccc5[n]4[Cu][n]4c(ccc4C(c4cc(OC)c(OC)c(OC)c4)=C4C=CC3=N4)C=C3C=CC(=N3)C=5c3cc(OC)c(OC)c(OC)c3)cc21 [(69)]
2,990 GM,CCCCCCC1(CCCCCC)c2cc(-c3c4nc(c(-c5cc(OC)c(OC)c(OC)c5)c5ccc(cc6nc(c(-c7cc(OC)c(OC)c(OC)c7)c7ccc3[nH]7)C=C6)[nH]5)C=C4)ccc2-c2ccc(-c3c4nc(c(-c5cc(OC)c(OC)c(OC)c5)c5ccc([nH]5)c(/C=C/c5ccc(N(c6ccccc6)c6ccccc6)cc5)c5nc(c(-c6cc(OC)c(OC)c(OC)c6)c6ccc3[nH]6)C=C5)C=C4)cc21 [(67)]
3,"1,030 GM",CN(C)c1ccc(/C=C/C2=c3ccc4[n]3[Zn][n]3c(ccc3C(c3ccccn3)=C3C=CC2=N3)C(c2ccc(/C=C/c3ccc(N(c5ccccc5)c5ccccc5)cc3)cc2)=C2C=CC(=N2)C=4c2ccccn2)cc1 [(13)]
4,"1,020 GM",CCCCCCC1(CCCCCC)c2cc(C3=C4C=CC(=N4)C(c4cc(OC)c(OC)c(OC)c4)=c4ccc5[n]4[Ni][n]4c(ccc43)C(c3cc(OC)c(OC)c(OC)c3)=C3C=CC(=N3)C=5/C=C/c3ccc(N(c4ccccc4)c4ccccc4)cc3)ccc2-c2ccc(C3=c4ccc5[n]4[Ni][n]4c(ccc4C(c4cc(OC)c(OC)c(OC)c4)=C4C=CC3=N4)C=C3C=CC(=N3)C=5c3cc(OC)c(OC)c(OC)c3)cc21 [(68)]
5,890 GM,CCCCCCc1ccc(N(c2ccc(C3=C4C=CC(=N4)C(c4ccccc4C)=c4ccc5[n]4[Pd][n]4c3ccc4C(c3ccccc3C)=C3C=CC(=N3)C=5c3ccc(/C=C/c4ccc(N(c5ccccc5)c5ccccc5)cc4)cc3)cc2)c2ccc(C3=c4ccc5[n]4[Pd][n]4c(ccc4C(c4ccccc4C)=C4C=CC3=N4)C=C3C=CC(=N3)C=5c3ccccc3C)cc2)cc1 [(31)]
6,840 GM,CCC1=C(C)C2=C(c3cc(OC)c(OC)c(OC)c3)c3c(C)c(CC)c4[n]3[Cu][n]3c(c(C)c(CC)c3=C(c3ccc(/C=C/c5ccc(N(c6ccc(C)cc6)c6ccc(C)cc6)cc5)cc3)C1=N2)=C(c1cc(OC)c(OC)c(OC)c1)C1=NC(=C4c2ccc(/C=C/c3ccc(N(c4ccc(C)cc4)c4ccc(C)cc4)cc3)cc2)C(CC)=C1C [(62)]
7,"1,200 GM",CCCCCCC1(CCCCCC)c2cc(C3=C4C=CC(=N4)C(c4cc(OC)c(OC)c(OC)c4)=c4ccc5[n]4[Zn][n]4c(ccc43)C(c3cc(OC)c(OC)c(OC)c3)=C3C=CC(=N3)C=5/C=C/c3ccc(N(c4ccccc4)c4ccccc4)cc3)ccc2-c2ccc(C3=c4ccc5[n]4[Zn][n]4c(ccc4C(c4cc(OC)c(OC)c(OC)c4)=C4C=CC3=N4)C=C3C=CC(=N3)C=5c3cc(OC)c(OC)c(OC)c3)cc21 [(45)]
8,900 GM,CCCCCCC1(CCCCCC)c2cc(C3=C4C=CC(=N4)C(c4cc(OC)c(OC)c(OC)c4)=c4ccc5[n]4[Co][n]4c(ccc43)C(c3cc(OC)c(OC)c(OC)c3)=C3C=CC(=N3)C=5/C=C/c3ccc(N(c4ccccc4)c4ccccc4)cc3)ccc2-c2ccc(C3=c4ccc5[n]4[Co][n]4c(ccc4C(c4cc(OC)c(OC)c(OC)c4)=C4C=CC3=N4)C=C3C=CC(=N3)C=5c3cc(OC)c(OC)c(OC)c3)cc21 [(70)]
